Data on two compounds can be found in US10399968B2, “Hydroxyalkyl thiadiazole derivatives” (Daiichi Sankyo Company, Limited, priority 2015, dated 2019).

Each structure is given as a SMILES string. In brackets after ≈: the same amount, converted by molar mass. Like-named read-outs stand apart in the source and are kept apart here.

In data set [1] the target is Clostridium difficile DNA gyrase (Clostridioides difficile, UniProt Q18C89). Description: DNA supercoiling inhibition assay. Format: biochemical. To be noted: supercoiling of relaxed pBR322 DNA, 60 minutes at 37° C. The essentials: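 Relaxed pBR322 (400 ng) supercoiled by C. difficile gyrase for 60 min at 37 °C in Tris-HCl pH 7.5 with 6 mM MgCl2, 70 mM KCl, compounds added from 20% DMSO. Products resolved on 1.0% agarose, EtBr-stained; supercoiled band intensity quantified and IC50 fitted.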
Chain of Clostridium difficile DNA gyrase (Q18C90 entry or part of it): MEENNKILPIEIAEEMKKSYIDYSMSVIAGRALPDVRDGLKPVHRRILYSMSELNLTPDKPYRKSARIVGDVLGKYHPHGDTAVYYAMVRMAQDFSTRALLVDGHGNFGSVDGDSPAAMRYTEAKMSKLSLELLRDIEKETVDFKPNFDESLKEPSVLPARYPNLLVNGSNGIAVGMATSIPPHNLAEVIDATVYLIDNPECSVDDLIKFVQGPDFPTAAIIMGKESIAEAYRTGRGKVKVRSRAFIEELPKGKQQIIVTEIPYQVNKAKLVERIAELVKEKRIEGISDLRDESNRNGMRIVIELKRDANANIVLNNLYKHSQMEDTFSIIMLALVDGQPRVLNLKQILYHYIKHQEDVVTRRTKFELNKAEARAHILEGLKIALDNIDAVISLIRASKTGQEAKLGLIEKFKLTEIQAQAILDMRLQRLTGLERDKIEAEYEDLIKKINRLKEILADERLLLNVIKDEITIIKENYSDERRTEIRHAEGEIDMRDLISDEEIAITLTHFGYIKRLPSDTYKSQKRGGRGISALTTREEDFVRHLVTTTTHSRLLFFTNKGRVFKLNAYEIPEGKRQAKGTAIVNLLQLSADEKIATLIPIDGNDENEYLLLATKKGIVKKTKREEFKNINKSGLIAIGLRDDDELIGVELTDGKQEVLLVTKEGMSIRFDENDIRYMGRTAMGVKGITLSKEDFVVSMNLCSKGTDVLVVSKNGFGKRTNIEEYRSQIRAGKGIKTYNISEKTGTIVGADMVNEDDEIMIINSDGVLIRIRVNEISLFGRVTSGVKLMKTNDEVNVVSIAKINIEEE
Chain of Clostridium difficile DNA gyrase (Q18C89 entry or part of it): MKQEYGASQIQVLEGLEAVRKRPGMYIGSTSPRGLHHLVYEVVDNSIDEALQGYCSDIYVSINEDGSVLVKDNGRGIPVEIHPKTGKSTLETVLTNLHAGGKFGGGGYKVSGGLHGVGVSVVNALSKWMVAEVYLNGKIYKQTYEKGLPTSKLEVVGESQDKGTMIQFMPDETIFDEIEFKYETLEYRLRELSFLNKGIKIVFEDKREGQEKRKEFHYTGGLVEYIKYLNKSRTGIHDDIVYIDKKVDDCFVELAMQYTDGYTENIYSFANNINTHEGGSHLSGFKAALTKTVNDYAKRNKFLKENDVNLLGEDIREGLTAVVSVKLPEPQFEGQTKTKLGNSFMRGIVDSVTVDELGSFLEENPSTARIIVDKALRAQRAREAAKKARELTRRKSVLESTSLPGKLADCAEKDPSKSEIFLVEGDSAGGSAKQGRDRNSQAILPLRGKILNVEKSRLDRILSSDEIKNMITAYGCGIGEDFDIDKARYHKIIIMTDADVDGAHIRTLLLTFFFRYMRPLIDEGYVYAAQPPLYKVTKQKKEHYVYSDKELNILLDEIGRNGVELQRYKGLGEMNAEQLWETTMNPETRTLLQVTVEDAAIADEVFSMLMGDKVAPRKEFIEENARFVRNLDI

The next data set relates to E. faecium ATCC 29212. Description: Susceptibility of bacteria, broth microdilution MIC. It counts as cell-based. The conditions noted are these: Enterococcus faecium, ATCC29212. Here is the method: (§1) The antibacterial activity of the compounds of the present invention was tested by the broth microdilution method. The assay was carried out according to the CLSI guidelines for managing the procedures of susceptibility tests: “M7-A7 Methods for Dilution Antimicrobial Susceptibility Tests for Bacteria That Grow Aerobically; Approved Standard-Seventh Edition (2006)”. Test strains were grown on appropriate agar plates overnight. A broth containing the test compound diluted serially 2-fold and diluents were dispensed at 100 μL to each well of a 96-well microplate. As a growth control, a well with a broth not containing the test compound was also prepared. Colonies grown on the plates were suspended in saline, adjusted to 0.5 McFarland (OD625=0.08 to 0.10) using a colorimeter, and then diluted 10-fold with saline. The bacterial suspension was inoculated at 4 μL into each well of the microplate using a bacterial suspension inoculation apparatus. The inoculated microplate was incubated at 35° C. overnight (about 20 hours). The growth condition was observed by the naked eye, and the minimum concentration to inhibit bacterial proliferation was defined as a minimum inhibitory concentration (MIC).

For data set [2], the system named is Haemophilus influenzae ATCC 49247. The data set is described as above. Format: cell-based. To be noted: ATCC49247. On the procedure:
as §1

In data set [3] the test system is Streptococcus pneumoniae ATCC 49619. The data set is described as above. Format: cell-based. To be noted: ATCC49619. On the procedure:
as §1

The next data set concerns S. aureus ATCC 29213. The description is as above. It counts as cell-based. The conditions noted are these: Staphylococcus aureus, ATCC29213. The essentials: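 CLSI M7-A7 broth microdilution with 2-fold serial compound dilutions; inoculum from 0.5 McFarland suspension diluted 10-fold, 4 μL per well. Incubated 35 °C for about 20 h; MIC is the lowest concentration preventing visible growth.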

Data set [4] can be described thus: Solubility in water (JP1 / JP2 fluids). It counts as physicochemical. The conditions noted are these: thermodynamic from solid. In a few lines: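 DMSO stock (10 mmol/L) dried down, residue shaken 30 min in JP1 or JP2 fluid after 1 min sonication, then held 1 h dark at room temperature. Filtrate diluted and quantified by UPLC against 100 and 5 μmol/L standards.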

Data set [5] in a line: Oral bioavailability (BA) in rats. Format: in vivo. To be noted: male, SD, blood; Rat, 2 mg/kg oral vs jugular vein. On the procedure: To SD male rats (7 week-old) fasted overnight, a solution of the test compound Captisol® was administered into the jugular vein (3 animals) and a solution of Lutrol® F68 was administered orally (3 animals). The dose of the test compounds was 2 mg/kg body weight of the rat for both administration routes. The amount of Captisol® used was 0.36 mg/kg body weight of the rat. The amount of Lutrol® F68 used was 0.02 mg/kg body weight of the rat. The BA value was calculated by the formula below using the integration value (AUCiv(0-∞)) of the blood concentration extrapolated from time 0 to infinity after administration of both test compounds. The greater a BA value of the compound shown, the higher the oral bioavailability is.

A short description of data set [6]: Oral bioavailability (BA) in monkeys. It counts as in vivo, Macaca fascicularis. The conditions noted are these: male, cynomolgus monkey, blood, 1 mg/kg oral vs jugular vein. Here is the method: To male Macaca fascicularis (3 or 4 year-old) fasted overnight, a solution of the test compound Captisol® was administered into the jugular vein (3 animals) and a solution of Lutrol® F68 was orally administered (3 animals). The dose of both test compounds was 1 mg/kg body weight of the monkey. The amount of Captisol® used was 0.18 mg/kg body weight of the monkey. The amount of Lutrol® F68 used was 0.02 mg/kg body weight of the monkey. The BA value was calculated by the formula below using the integration value (AUCiv(0-∞)) of the blood concentration extrapolated from time 0 to infinity after administration of both test compounds. BA(%)=[[(AUCpo(0-∞))/(dose po)]/[(AUCiv(0-∞))/(dose iv)]]×100 The greater a BA value of the compound shown, the higher the oral bioavailability is.

Setting [7] is: Japanese Pharmacopeia First Fluid (JP1), pH 1.2, simulated gastric fluid, read-out: Solubility JP1.
Setting [8] is: Japanese Pharmacopeia Second Fluid (JP2), pH 6.8, aqueous buffer, read-out: Solubility JP2.

The compound `CCc1[nH]c(C(=O)N[C@@H]2CCN(c3nnc([C@H](C)O)s3)C[C@@H]2OC)nc1Cl` (single isomer, unassigned) [Compound No. 5] had an IC50 in data set [1] of 0.0217 µM. Moreover, the MIC against E. faecium ATCC 29212 came to 0.25 µg/mL (≈ 0.603 µM); in data set [2], 1 µg/mL (≈ 2.41 µM); in data set [3], 0.25 µg/mL (≈ 0.603 µM); against S. aureus ATCC 29213 it was 0.5 µg/mL (≈ 1.21 µM). Moreover, the values for the solubility at 30 min in data set [4] (setting [7]) and in data set [4] (setting [8]) were 680 µg/mL (≈ 1640 µM) and 359 µg/mL (≈ 865 µM), respectively. In addition, the results for the bioavailability in data set [5] and in data set [6] were 60% and 100%, respectively.

In data set [1], `CCc1[nH]c(C(=O)N[C@@H]2CCN(c3nnc(C(C)(C)O)s3)C[C@@H]2OC)nc1Cl` [Compound No. 2, 4-Chloro-5-ethyl-N-{(3S,4R)-1-[5-(2-hydroxypropan-2-yl)-1,3,4-thiadiazol-2-yl]-3-methoxypiperidin-4-yl}-1H-imidazole-2-carboxamide] showed an IC50 of 0.0466 µM. Moreover, the MIC against E. faecium ATCC 29212 was 0.25 µg/mL (≈ 0.583 µM); in data set [2], 0.5 µg/mL (≈ 1.17 µM); in data set [3], 0.25 µg/mL (≈ 0.583 µM); in the data set with S. aureus ATCC 29213, 0.25 µg/mL (≈ 0.583 µM). Also, the figures for the solubility at 30 min in data set [4] (setting [7]) and in data set [4] (setting [8]) were 706 µg/mL (≈ 1650 µM) and 256 µg/mL (≈ 597 µM), respectively. In addition, the bioavailability turned out to be 98% in data set [5] and 85% in data set [6].
